Assay results from US20240207213A1, “METHODS AND COMPOSITIONS FOR TREATING DISORDERS WITH ORAL SYSTEMICALLY BIOAVAILABLE BUTYRATE CONJUGATES” (THE UNIVERSITY OF CHICAGO, priority 2021, published 2024).
Entries after “also recorded” stand apart in the source; their conditions may differ. Where two headings read alike, the source gives them in different places.

Legend:
[1] = Biodistribution of butyrate after oral gavage (LC-MS/MS quantification in plasma and organs); type: in vivo, C57BL/6J mice; settings: for butyrate level in the liver / butyrate level in the mesenteric LNs: 3 hr and 6 hr post oral administration; for butyrate level in the spleen: 3 hr post oral administration
Experimental: The specific-pathogen-free (SPF) female C57BL/6J mice were orally administered with 50.4 mg NaBut, 80 mg SerBut, 85.6 mg ThrBut (all containing equivalent 40 mg butyrate), or PBS. At 0.5 hr or 3 hr post administration, blood was collected by cheek bleeding. At 3 hr or 6 hr post administration, the mice were anesthetized under isoflurane and transcardially perfused with at least 30 ml phosphate-buffered saline (PBS) containing 1 mM EDTA. Organs including liver, mesenteric lymph nodes (mLNs), brain, spinal cord, and spleen were collected and frozen in dry ice immediately, and then transfer to −80° C. until further processing.
1:1 v/v acetonitrile (ACN) to water was used to extract butyrate from the plasma or organs. Plasma was mixed 1:1 with ACN/water solution, and then centrifuged to remove the denatured proteins. Organs were weighed and transferred to Lysing Matrix D tubes, and added with ACN/water 1:1 v/v solution followed by sample lysing using FastPrep-24 5G homogenizer (MP Biomedicals). The samples were then centrifuged, and the supernatant were collected for the measuring of butyrate.
Samples were prepared and derivatized as describe in the literature (5, 6). 3-nitrophenylhydrazine (NPH) stock solution was prepared at 0.02 M in water:acetonitrile 1:1 v/v. EDC stock solution (with 1% pyridine added) was prepared at 0.25 M in water:acetonitrile 1:1 v/v. 4-methylvaleric acid was added as internal standard. Samples were mixed with NPH stock and EDC stock at 1:1:1 ratio by volume. The mixture was heated by heating block at 60° C. for 30 min. Samples were then filtered through […] and transferred into HPLC vials and stored at 4° C. before analysis.
The Agilent 6460 Triple Quad MS-MS was used to detect the derivatized butyrate.
Both derivatized butyrate-NPH and 4-methylvaleric-NPH were detected in negative mode. Column: ThermoScientific C18 4.6×50 mm, […], at room temperature. Mobile phase A: water with 0.1% v/v formic acid. Mobile phase B: acetonitrile with 0.1% v/v formic acid. Injection volume: 5.0 μL. Flow rate: 0.5 mL/min. Gradient of solvent: 15% mobile phase B at 0.0 min; 100% mobile phase B at 3.5 min; 100% mobile phase B at 6.0 min; 15% mobile phase B at 6.5 min. The MS conditions were optimized on pure butyrate-NPH or 4-methylvaleric-NPH at 1 mM. The fragment voltage was 135 V and collision energy was set to 18 V. Multiple reaction monitoring (MRM) of 222→137 was assigned to butyrate, and MRM of 250→137 was assigned to 4-methylvaleric acid as internal standard. The ratio between MRM of butyrate and 4-methylvaleric acid was used to quantify the concentration of butyrate. The final butyrate content is each organ is normalized by the organ weight.

[2] = Water solubility (statement); type: physicochemical
[3] = test system: experimental autoimmune encephalomyelitis (EAE); type: in vivo, C57BL/6 mice; settings: for Th17 cells (RORγt+% of CD4+ T cells) in the spinal cord: day 20, compared to the PBS group
Text: C57BL/6 female mice (8 weeks old) were purchased from Charles River Laboratories and housed in the animal facility at the University of Chicago for 2 weeks before immunization. All experiments were approved by the Institutional Animal Care and Use Committee of the University of Chicago
Female C57BL/6 mice at the age of week 10 were subcutaneously immunized at the dorsal flanks with an emulsion of MOG35-55 in complete Freund's adjuvant (MOG35-55/CFA Emulsion, Hooke Laboratories) on day 0, followed by i.p. administration of pertussis toxin in PBS on both day 0 and day 1. The mice were treated with PBS or serine butyrate (0.6 mg/g per dose) twice daily from day 2 to day 19. Another group of mice were treated with PBS once (in the morning) and serine butyrate (0.6 mg/g) once (in the afternoon) daily. The development of EAE was monitored and clinical scores were measured daily from day 7 to day 20. The clinical scores were determined based on the Hooke Laboratories scoring criteria (found online at hookelabs.com/services/cro/eae/MouseEAEscoring.html). In brief, EAE clinical scores ranged from a score of 0, corresponding to no obvious changes in motor function compared to non-immunized mice, to a score of 4, corresponding to limp tail and minimal or no movement of hind and/or fore limbs. On day 20, mice from the twice daily PBS or serine butyrate gavage groups were sacrificed. Their blood was collected through cardiac puncture, and spleen, spinal cord, mesenteric lymph nodes (LNs), central nervous system(CNS)-draining LNs (dLNs, including cervical LNs and iliac LNs) were harvested for the immunostaining followed by the flow cytometry analysis. The major cytokines from the plasma and spinal cord after homogenization were analyzed by the LegendPlex (BioLegend).

[4] = 0.5 hr and 3 hr after oral administration (both time points)
[5] = oral, compared to mice treated with NaBut and ThrBut (PBS and sodium butyrate)
[6] = day 20, flow cytometry, twice daily vs PBS
[7] = day 20, flow cytometry, twice daily vs PBS, listed as Serine butyrate
[8] = day 20, flow cytometry, twice daily vs PBS, listed as serine butyrate

CCCC(=O)OC(C)[C@H](N)C(=O)O (stereo in doubt) [ThrBut, O-butyryl L-threonine]
butyrate level in the plasma [1, 4]: did not show high level of butyrate | butyrate level in the liver [1]: high level of butyrate | butyrate level in the mesenteric LNs [1]: high level of butyrate; also recorded: higher accumulation | butyrate level in the spleen [1]: higher level of butyrate; also recorded: higher accumulation | water solubility [2]: water soluble

CCCC(=O)[O-].[Na+] [NaBut, sodium butyrate, reference compound]
butyrate level in the plasma [1, 4]: did not show high level of butyrate

CCCC(=O)OC[C@H](N)C(=O)O [SerBut, O-butyryl L-serine]
butyrate level in the plasma ([1]; 0.5 hr after oral administration, equivalent 40 mg butyrate): dramatically increased | butyrate level in the plasma ([1]; 3 hr after oral administration, equivalent 40 mg butyrate): dropped significantly | butyrate level in the liver [1]: high level of butyrate | butyrate level in the mesenteric LNs [1]: high level of butyrate; also recorded: higher accumulation | butyrate level in the spleen [1]: higher level of butyrate; also recorded: higher accumulation | butyrate level in brain [1, 5]: significantly enhanced; also recorded: significantly increased | butyrate level in spinal cord [1, 5]: significantly enhanced; also recorded: significantly increased | severity of EAE disease development (clinical score) ([3]; 0.6 mg/g per dose oral, twice daily day 2-19, vs PBS, listed as Serine butyrate): attenuates | dose regimen comparison in EAE: twice daily vs single daily dose ([3]; 0.6 mg/g twice daily vs once daily): performed better than a single dose | body weight loss ([3]; EAE mice treated orally): did not observe a significant body weight loss | MHCII expression (gMFI) on dendritic cells and macrophages in the mesenteric LNs ([3]; day 20, compared to PBS-treated mice): significantly lower | Th17 cells (RORγt+% of CD4+ T cells) in the spinal cord ([3]; listed as Serine butyrate): reduced | Th17 cells (RORγt+% of CD4+ T cells) in the spinal cord ([3]; listed as serine butyrate): less Th17 cells | CD80+% and CD86+% of CD11c hi dendritic cells in the spinal cord [3, 6]: significant reduction | cell surface MHCII expression in CD11c hi dendritic cells and CD11b+CD11c- monocytes, spinal cord [3, 6]: similarly marked reduction | MHCII positive dendritic cells and macrophages in the mesenteric LNs [3, 7]: suppresses | immune cell infiltration into the spinal cord (CD11b+, CD11b+CD11c-, F4/80+CD11b+ cells) [3, 7]: inhibits | MHCII positive dendritic cells and macrophages in the mesenteric LNs [3, 8]: significant reduction | immune cell infiltration into the spinal cord (CD11b+, CD11b+CD11c-, F4/80+CD11b+ cells) [3, 8]: significantly suppressed | IFNγ in the spinal cord ([3]; day 20, homogenate supernatant normalized by total protein): minimal IFNγ | Foxp3+CD8+ Tregs in the mesenteric LNs ([3]; day 20, twice daily vs PBS): significant induction | regulatory T cells in the spleen (Foxp3+ or Foxp3+CD25+ of CD4+ T cells) ([3]; day 20, twice daily vs PBS): significantly increased | EAE clinical score of the majority of mice ([3]; twice daily 0.6 mg/g, score scale 0-4): below 1.0 | water solubility [2]: water soluble

CCCC(=O)Oc1ccc(C[C@H](N)C(=O)O)cc1 [TyrBut, O-butyryl L-tyrosine]
water solubility [2]: not highly soluble
